Results reported in patent US7030213B2, “Conformationally stabilized cell adhesion peptides” (La Jolla Cancer Research Institute, priority 1987, dated 2006).
Primed or numbered codes have the meaning given here. Where no end group is shown, it is not given here. [ ]: non-standard residue; d: D form. Pen′ = Penicillamine

Key:
[1] = tested on: attachment of normal rat kidney cells to vitronectin; test: Cell adhesion assay: inhibition of attachment of normal rat kidney cells to vitronectin; assay type: cell-based; settings: normal rat kidney cells on vitronectin-coated wells, peptide 0 to 10.0 mM, 1 hour at 37° C., FIG. 2
Method: (§1) Fibronectin and vitronectin were purified from human plasma according to the methods of Ruoslahti et al., (1982) Meth. Enz. 82:803; and Hayman et al., (1983) PNAS 80:4003, respectively, both of which are incorporated herein by reference. The adhesion of normal rat kidney cells to fibronectin and vitronectin was assayed as described, in Ruoslahti et al., Meth. Enz. supra. Briefly, 0.1 ml solution of fibronectin or vitronectin at a concentration of 12 μg/ml in 0.1M PBS was placed in each well of 96-well plastic microtiter plates and left for 2 hours at room temperature. The unattached protein was removed by washing three times with PBS.
(§2) One day before the assay, a confluent culture of normal rat kidney cells was split 1:2 using standard tissue culture trypsin. The cells were washed three times with PBS, pH 7.2. […] Before the last centrifugation, a sample was taken and cell numbers and viability by trypan blue exclusion are determined. […]
(§3) The unattached cells were removed simply by removing the medium and washing the wells. […] The cells were then fixed with 3% paraformaldehyde in PBS and stained with 1% toluidine blue, paraformaldehyde in PBS, and attached cells counted. Their number was determined using a cell counter that is capable of counting cells attached to a surface (Dynatech Laboratories, Alexandria, Va.). […]

[2] = tested on: attachment of normal rat kidney cells to fibronectin; test: Cell adhesion assay: inhibition of attachment of normal rat kidney cells to fibronectin; assay type: cell-based; settings: normal rat kidney cells on fibronectin-coated wells; peptide 0 to 10.0 mM; 1 hour at 37° C.; FIG. 2
Method: as §1, §2, §3

Row | Substance | inhibition of attachment to vitronectin [1] | inhibition of attachment to fibronectin [2] | molar concentration inhibiting attachment to vitronectin, lower than the linear peptide ([1]; relative to linear peptide) [fold]
1 | Gly-Pen-Gly-Arg-Gly-Asp-Ser-Pro-Cys (G[Pen′]GRGDSPC; cysteine pairing not given here) [linear peptide, non-cyclized, or linear, peptide used as comparator] | inhibited attachment of cells to both substrates at relatively similar concentrations | inhibited attachment of cells to both substrates at relatively similar concentrations | –
2 | Gly-Pen-Gly-Arg-Gly-Asp-Ser-Pro-Cys-Ala [cyclic peptide] | – | ineffective | 10
